Experimental data reported in patent publication US20240132431A1, “METHOD FOR ALKYLATING ACIDIC FUNCTIONAL GROUP” (Chugai Seiyaku Kabushiki Kaisha, priority 2021, published 2024).

Molecular target: T1, Bcl-2 protein (Recombinant Human Bcl-2 Protein) (Homo sapiens, UniProt P10415)
T1 construct: purchased Novus NBP2-34889
Assay: Binding evaluation of mixture library compounds to Bcl-2 using AS-MS (affinity selection mass spectrometry)
Conditions: AS-MS, mixture library, Bcl-2, ASMS Ratio(%)=(A−C)/B×100; for ASMS ratio (%) n = 1: replicate n = 1; for ASMS ratio (%) n = 2: replicate n = 2
Summary of the method: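 Bcl-2 binding is scored from LC/MS signal retained with protein through gel-filtration spin columns, normalised to unfiltered and protein-free controls. Incubation: 20 μM protein, […] per compound, 1 h, 23° C.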

T1 sequence (P10415 whole entry): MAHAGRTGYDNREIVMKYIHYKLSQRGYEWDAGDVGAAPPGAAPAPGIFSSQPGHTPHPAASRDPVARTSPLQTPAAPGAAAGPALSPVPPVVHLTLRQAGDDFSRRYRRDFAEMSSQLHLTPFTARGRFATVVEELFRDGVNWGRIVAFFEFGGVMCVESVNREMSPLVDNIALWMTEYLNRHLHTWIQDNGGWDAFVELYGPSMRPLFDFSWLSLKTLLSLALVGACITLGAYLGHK

Compound	ASMS ratio (%) n = 1	ASMS ratio (%) n = 2
CCOc1cncc(C#Cc2cncc(C(=O)N3CCN(c4ccc(C(=O)NS(=O)(=O)c5ccc(NCCSc6ccccc6)c([N+](=O)[O-])c5)cc4)CC3)c2)c1 [B2Q032-01, 4-[4-[5-[2-(5-Ethoxypyridin-3-yl)ethynyl]pyridine-3-carbonyl]piperazin-1-yl]-N-[3-nitro-4-(2-phenylsulfanylethylamino)phenyl]sulfonylbenzamide]	−0.2%	−374.2%
CCOc1cccc(-c2ccccc2CCC(=O)N2CCN(c3ccc(C(=O)NS(=O)(=O)c4ccc(NCCSc5ccccc5)c([N+](=O)[O-])c4)cc3)CC2)c1 [B2Q033-01, 4-[4-[3-[2-(3-Ethoxyphenyl)phenyl]propanoyl]piperazin-1-yl]-N-[3-nitro-4-(2-phenylsulfanylethylamino)phenyl]sulfonylbenzamide]	4.2%	−2.3%
CCOc1cncc(-c2ccccc2CCC(=O)N2CCN(c3ccc(C(=O)NS(=O)(=O)c4ccc(NCCSc5ccccc5)c([N+](=O)[O-])c4)cc3)CC2)c1 [B2Q034-01, 4-[4-[3-[2-(5-Ethoxypyridin-3-yl)phenyl]propanoyl]piperazin-1-yl]-N-[3-nitro-4-(2-phenylsulfanylethylamino)phenyl]sulfonylbenzamide]	0.0%	0.0%
CCOc1cccc(-c2ccc(C(=O)N3CCN(c4ccc(C(=O)NS(=O)(=O)c5ccc(NCCSc6ccccc6)c([N+](=O)[O-])c5)cc4)CC3)c3ccccc23)c1 [B2Q035-01, 4-[4-[4-(3-Ethoxyphenyl)naphthalene-1-carbonyl]piperazin-1-yl]-N-[3-nitro-4-(2-phenylsulfanylethylamino)phenyl]sulfonylbenzamide]	9.9%	−13.7%
CCOc1cncc(-c2ccc(C(=O)N3CCN(c4ccc(C(=O)NS(=O)(=O)c5ccc(NCCSc6ccccc6)c([N+](=O)[O-])c5)cc4)CC3)c3ccccc23)c1 [B2Q036-01, 4-[4-[4-(5-Ethoxypyridin-3-yl)naphthalene-1-carbonyl]piperazin-1-yl]-N-[3-nitro-4-(2-phenylsulfanylethylamino)phenyl]sulfonylbenzamide]	0.0%	−6.0%
CCOc1cccc(-c2cc(C(=O)N3CCN(c4ccc(C(=O)NS(=O)(=O)c5ccc(NCCSc6ccccc6)c([N+](=O)[O-])c5)cc4)CC3)cc(C(C)(C)C)c2)c1 [B2Q037-01, 4-[4-[3-tert-Butyl-5-(3-ethoxyphenyl)benzoyl]piperazin-1-yl]-N-[3-nitro-4-(2-phenylsulfanylethylamino)phenyl]sulfonylbenzamide]	10.9%	−1.5%
CCOc1cncc(-c2cc(C(=O)N3CCN(c4ccc(C(=O)NS(=O)(=O)c5ccc(NCCSc6ccccc6)c([N+](=O)[O-])c5)cc4)CC3)cc(C(C)(C)C)c2)c1 [B2Q038-01, 4-[4-[3-tert-Butyl-5-(5-ethoxypyridin-3-yl)benzoyl]piperazin-1-yl]-N-[3-nitro-4-(2-phenylsulfanylethylamino)phenyl]sulfonylbenzamide]	3.3%	0.4%
CCOc1cccc(-c2cc(C(=O)N3CCN(c4ccc(C(=O)NS(=O)(=O)c5ccc(NCCSc6ccccc6)c([N+](=O)[O-])c5)cc4)CC3)cc(C(F)(F)F)c2)c1 [B2Q039-01, 4-[4-[3-(3-Ethoxyphenyl)-5-(trifluoromethyl)benzoyl]piperazin-1-yl]-N-[3-nitro-4-(2-phenylsulfanylethylamino)phenyl]sulfonylbenzamide]	7.2%	4.6%
CCOc1cccc(C#Cc2cc(C(=O)N3CCN(c4ccc(C(=O)NS(=O)(=O)c5ccc(NCCSc6ccccc6)c([N+](=O)[O-])c5)cc4)CC3)cc(C(F)(F)F)c2)c1 [B2Q041-01, 4-[4-[3-[2-(3-Ethoxyphenyl)ethynyl]-5-(trifluoromethyl)benzoyl]piperazin-1-yl]-N-[3-nitro-4-(2-phenylsulfanylethylamino)phenyl]sulfonylbenzamide]	2.6%	0.2%
CCOc1cncc(C#Cc2cc(C(=O)N3CCN(c4ccc(C(=O)NS(=O)(=O)c5ccc(NCCSc6ccccc6)c([N+](=O)[O-])c5)cc4)CC3)cc(C(F)(F)F)c2)c1 [B2Q042-01, 4-[4-[3-[2-(5-Ethoxypyridin-3-yl)ethynyl]-5-(trifluoromethyl)benzoyl]piperazin-1-yl]-N-[3-nitro-4-(2-phenylsulfanylethylamino)phenyl]sulfonylbenzamide]	26.1%	19.5%
CCOc1cccc(-c2cnn(-c3cc(C(=O)N4CCN(c5ccc(C(=O)NS(=O)(=O)c6ccc(NCCSc7ccccc7)c([N+](=O)[O-])c6)cc5)CC4)cc(C(F)(F)F)c3)c2)c1 [B2Q043-01, 4-[4-[3-[4-(3-Ethoxyphenyl)pyrazol-1-yl]-5-(trifluoromethyl)benzoyl]piperazin-1-yl]-N-[3-nitro-4-(2-phenylsulfanylethylamino)phenyl]sulfonylbenzamide]	12.4%	−13.4%
CCOc1cncc(-c2cnn(-c3cc(C(=O)N4CCN(c5ccc(C(=O)NS(=O)(=O)c6ccc(NCCSc7ccccc7)c([N+](=O)[O-])c6)cc5)CC4)cc(C(F)(F)F)c3)c2)c1 [B2Q044-01, 4-[4-[3-[4-(5-Ethoxypyridin-3-yl)pyrazol-1-yl]-5-(trifluoromethyl)benzoyl]piperazin-1-yl]-N-[3-nitro-4-(2-phenylsulfanylethylamino)phenyl]sulfonylbenzamide]	11.0%	−1.3%
CCOc1cccc(-c2ccc(CN3CCN(c4ccc(C(=O)NS(=O)(=O)c5ccc(NCCSc6ccccc6)c([N+](=O)[O-])c5)cc4)CC3)c(CC)c2)c1 [B2Q049-01, 4-[4-[[4-(3-Ethoxyphenyl)-2-ethylphenyl]methyl]piperazin-1-yl]-N-[3-nitro-4-(2-phenylsulfanylethylamino)phenyl]sulfonylbenzamide]	−2.4%	−4.8%
CCOc1cncc(-c2ccc(CN3CCN(c4ccc(C(=O)NS(=O)(=O)c5ccc(NCCSc6ccccc6)c([N+](=O)[O-])c5)cc4)CC3)c(CC)c2)c1 [B2Q050-01, 4-[4-[[4-(5-Ethoxypyridin-3-yl)-2-ethylphenyl]methyl]piperazin-1-yl]-N-[3-nitro-4-(2-phenylsulfanylethylamino)phenyl]sulfonylbenzamide]	0.0%	0.0%
CCOc1cccc(-c2ccc(CN3CCN(c4ccc(C(=O)NS(=O)(=O)c5ccc(NCCSc6ccccc6)c([N+](=O)[O-])c5)cc4)CC3)cc2F)c1 [B2Q051-01, 4-[4-[[4-(3-Ethoxyphenyl)-3-fluorophenyl]methyl]piperazin-1-yl]-N-[3-nitro-4-(2-phenylsulfanylethylamino)phenyl]sulfonylbenzamide]	22.6%	2.1%
CCOc1cncc(-c2ccc(CN3CCN(c4ccc(C(=O)NS(=O)(=O)c5ccc(NCCSc6ccccc6)c([N+](=O)[O-])c5)cc4)CC3)cc2F)c1 [B2Q052-01, 4-[4-[[4-(5-Ethoxypyridin-3-yl)-3-fluorophenyl]methyl]piperazin-1-yl]-N-[3-nitro-4-(2-phenylsulfanylethylamino)phenyl]sulfonylbenzamide]	22.8%	13.9%
CCOc1cccc(-c2cc(CN3CCN(c4ccc(C(=O)NS(=O)(=O)c5ccc(NCCSc6ccccc6)c([N+](=O)[O-])c5)cc4)CC3)cc(OCC)c2)c1 [B2Q055-01, 4-[4-[[3-Ethoxy-5-(3-ethoxyphenyl)phenyl]methyl]piperazin-1-yl]-N-[3-nitro-4-(2-phenylsulfanylethylamino)phenyl]sulfonylbenzamide]	9.0%	−8.3%
CCOc1cncc(-c2cc(CN3CCN(c4ccc(C(=O)NS(=O)(=O)c5ccc(NCCSc6ccccc6)c([N+](=O)[O-])c5)cc4)CC3)cc(OCC)c2)c1 [B2Q056-01, 4-[4-[[3-Ethoxy-5-(5-ethoxypyridin-3-yl)phenyl]methyl]piperazin-1-yl]-N-[3-nitro-4-(2-phenylsulfanylethylamino)phenyl]sulfonylbenzamide]	7.3%	2.8%
CCOc1cccc(-c2cc(CN3CCN(c4ccc(C(=O)NS(=O)(=O)c5ccc(NCCSc6ccccc6)c([N+](=O)[O-])c5)cc4)CC3)cc(OC(C)C)c2)c1 [B2Q057-01, 4-[4-[[3-(3-Ethoxyphenyl)-5-propan-2-yloxyphenyl]methyl]piperazin-1-yl]-N-[3-nitro-4-(2-phenylsulfanylethylamino)phenyl]sulfonylbenzamide]	17.5%	4.4%
CCOc1cncc(-c2cc(CN3CCN(c4ccc(C(=O)NS(=O)(=O)c5ccc(NCCSc6ccccc6)c([N+](=O)[O-])c5)cc4)CC3)cc(OC(C)C)c2)c1 [B2Q058-01, 4-[4-[[3-(5-Ethoxypyridin-3-yl)-5-propan-2-yloxyphenyl]methyl]piperazin-1-yl]-N-[3-nitro-4-(2-phenylsulfanylethylamino)phenyl]sulfonylbenzamide]	3.7%	3.7%
